In patent US20260035387A1 (BIOGEN MA INC., priority 2022, published 2026):

tested on: mutant Huntington (HTT) protein; test: HTT Mutant HTRF iPSC assay (mHTT protein lowering); type: cell-based; details: human iPSC derived from a HTT patient with a poly-Q49 mutation

Structure (SMILES)	IC50
CCN1CCN(c2ccc3cc(C(=O)Nc4cc5cc(C)nn5cc4OC)sc3n2)CC1 [Compound 183, 6-(4-ethylpiperazin-1-yl)-N-(6-methoxy-2-methylpyrazolo[1,5-a]pyridin-5-yl)thieno[2,3-b]pyridine-2-carboxamide]	< 100 nM
COc1nc(NC(=O)c2cc3ccc(C4CCN(C)CC4)nc3s2)cn2cc(C)nc12 [Compound 184, N-(8-methoxy-2-methylimidazo[1,2-a]pyrazin-6-yl)-6-(1-methylpiperidin-4-yl)thieno[2,3-b]pyridine-2-carboxamide]	< 100 nM
Cc1cn2cc(NC(=O)c3cc4ccc(N5C[C@@H]6C[C@H]5CN6C(C)C)nc4s3)cc(F)c2n1 [Compound 189, N-(8-fluoro-2-methylimidazo[1,2-a]pyridin-6-yl)-6-((1S,4S)-5-isopropyl-2,5-diazabicyclo[2.2.1]heptan-2-yl)thieno[2,3-b]pyridine-2-carboxamide]	< 100 nM
COc1cn2nc(C)cc2cc1NC(=O)c1cc2ccc(N3CCC(N(C)C)C3)nc2s1 (centres unmarked) [Compound 190, 6-(3-(dimethylamino)pyrrolidin-1-yl)-N-(6-methoxy-2-methylpyrazolo[1,5-a]pyridin-5-yl)thieno[2,3-b]pyridine-2-carboxamide]	< 100 nM
COc1nc(NC(=O)c2cc3ccc(N4CCC(N(C)C)C4)nc3s2)cn2cc(C)nc12 (centres unmarked) [Compound 191, 6-(3-(dimethylamino)pyrrolidin-1-yl)-N-(8-methoxy-2-methylimidazo[1,2-a]pyrazin-6-yl)thieno[2,3-b]pyridine-2-carboxamide]	< 100 nM
CN(C)[C@@H]1CCN(c2ccc3cc(C(=O)Nc4cc(F)c5nn(C)cc5c4)sc3n2)C1 [Compound 192, (R)-6-(3-(dimethylamino)pyrrolidin-1-yl)-N-(7-fluoro-2-methyl-2H-indazol-5-yl)thieno[2,3-b]pyridine-2-carboxamide]	< 100 nM
Cc1cn2cc(NC(=O)c3cc4ccc(N5CCNC6(CC6)C5)nc4s3)nc(C)c2n1 [Compound 193, N-(2,8-dimethylimidazo[1,2-a]pyrazin-6-yl)-6-(4,7-diazaspiro[2.5]octan-7-yl)thieno[2,3-b]pyridine-2-carboxamide]	< 100 nM
[2H]C([2H])([2H])N1CCN(c2ccc3cc(C(=O)Nc4cn5cc(C)nc5c(C)n4)sc3n2)CC1 [Compound 195, N-(2,8-dimethylimidazo[1,2-a]pyrazin-6-yl)-6-(4-(methyl-d3)piperazin-1-yl)thieno[2,3-b]pyridine-2-carboxamide]	< 100 nM
Cc1cn2cc(NC(=O)c3cc4ccc(N5C[C@@H]6CNC[C@@H]65)nc4s3)cc(F)c2n1 [Compound 196, 6-((1S,5R)-3,6-diazabicyclo[3.2.0]heptan-6-yl)-N-(8-fluoro-2-methylimidazo[1,2-a]pyridin-6-yl)thieno[2,3-b]pyridine-2-carboxamide]	< 100 nM
CNC1CN(c2ccc3cc(C(=O)Nc4cc(F)c5nc(C)cn5c4)sc3n2)C1 [Compound 197, N-(8-fluoro-2-methylimidazo[1,2-a]pyridin-6-yl)-6-(3-(methylamino)azetidin-1-yl)thieno[2,3-b]pyridine-2-carboxamide]	< 100 nM
Cc1cn2cc(NC(=O)c3cc4ccc(N5CCC6NCC65)nc4s3)cc(F)c2n1 (centres unmarked) [Compound 200, 6-(2,6-diazabicyclo[3.2.0]heptan-2-yl)-N-(8-fluoro-2-methylimidazo[1,2-a]pyridin-6-yl)thieno[2,3-b]pyridine-2-carboxamide]	< 100 nM
Cc1cn2cc(NC(=O)c3cc4ccc(N5CCC6CNCC65)nc4s3)cc(F)c2n1 (centres unmarked) [Compound 201, N-(8-fluoro-2-methylimidazo[1,2-a]pyridin-6-yl)-6-(hexahydropyrrolo[3,4-b]pyrrol-1(2H)-yl)thieno[2,3-b]pyridine-2-carboxamide]	< 100 nM
Cc1cn2cc(NC(=O)c3cc4ccc(N5C[C@H]6CN[C@H]6C5)nc4s3)cc(F)c2n1 [Compound 202, 6-((1R,5R)-3,6-diazabicyclo[3.2.0]heptan-3-yl)-N-(8-fluoro-2-methylimidazo[1,2-a]pyridin-6-yl)thieno[2,3-b]pyridine-2-carboxamide]	< 100 nM
Cc1cn2cc(NC(=O)c3cc4ccc(N5CC(N(C)C)C(C)(C)C5)nc4s3)cc(F)c2n1 (centres unmarked) [Compound 203, 6-(4-(dimethylamino)-3,3-dimethylpyrrolidin-1-yl)-N-(8-fluoro-2-methylimidazo[1,2-a]pyridin-6-yl)thieno[2,3-b]pyridine-2-carboxamide]	< 100 nM
Cc1cn2cc(NC(=O)c3cc4ccc(N5CC(N(C)C)C5)nc4s3)cc(F)c2n1 [Compound 204, 6-(3-(dimethylamino)azetidin-1-yl)-N-(8-fluoro-2-methylimidazo[1,2-a]pyridin-6-yl)thieno[2,3-b]pyridine-2-carboxamide]	< 100 nM
Cc1cn2cc(NC(=O)c3cc4ccc(N5CCC(N6CC7(CC7)C6)C5)nc4s3)cc(F)c2n1 (centres unmarked) [Compound 207, 6-(3-(5-azaspiro[2.3]hexan-5-yl)pyrrolidin-1-yl)-N-(8-fluoro-2-methylimidazo[1,2-a]pyridin-6-yl)thieno[2,3-b]pyridine-2-carboxamide]	< 100 nM

Structure (SMILES)	IC50
Cc1cn2cc(NC(=O)c3cc4ccc(N5CCC6(CCCN6C)C5)nc4s3)nc(C)c2n1 (centres unmarked) [Compound 208, N-(2,8-dimethylimidazo[1,2-a]pyrazin-6-yl)-6-(1-methyl-1,7-diazaspiro[4.4]nonan-7-yl)thieno[2,3-b]pyridine-2-carboxamide]	< 100 nM
Cc1cn2cc(NC(=O)c3cc4ccc(N5CCC56CCNC6)nc4s3)cc(F)c2n1 (centres unmarked) [Compound 209, N-(8-fluoro-2-methylimidazo[1,2-a]pyridin-6-yl)-6-(1,6-diazaspiro[3.4]octan-1-yl)thieno[2,3-b]pyridine-2-carboxamide]	< 100 nM
Cc1cn2cc(NC(=O)c3cc4ccc(N5CC(N(C)C)C6(CC6)C5)nc4s3)nc(C)c2n1 (centres unmarked) [Compound 211, 6-(7-(dimethylamino)-5-azaspiro[2.4]heptan-5-yl)-N-(2,8-dimethylimidazo[1,2-a]pyrazin-6-yl)thieno[2,3-b]pyridine-2-carboxamide]	< 100 nM
Cc1cn2cc(NC(=O)c3cc4ccc(NC5CN(C)CC5F)nc4s3)nc(C)c2n1 (centres unmarked) [Compound 214, N-(2,8-dimethylimidazo[1,2-a]pyrazin-6-yl)-6-((4-fluoro-1-methylpyrrolidin-3-yl)amino)thieno[2,3-b]pyridine-2-carboxamide]	< 100 nM
COc1cc2nn(C)cc2cc1NC(=O)c1cc2ccc(N3C[C@@H]4CN(C)C[C@@H]43)nc2s1 [Compound 216, N-(6-methoxy-2-methyl-2H-indazol-5-yl)-6-((1S,5R)-3-methyl-3,6-diazabicyclo[3.2.0]heptan-6-yl)thieno[2,3-b]pyridine-2-carboxamide]	< 100 nM
Cc1cn2cc(NC(=O)c3cc4ccc(N5C[C@H]6CN(C)C[C@H]65)nc4s3)cc(F)c2n1 [Compound 217, N-(8-fluoro-2-methylimidazo[1,2-a]pyridin-6-yl)-6-((1R,5S)-3-methyl-3,6-diazabicyclo[3.2.0]heptan-6-yl)thieno[2,3-b]pyridine-2-carboxamide]	< 100 nM
Cc1cn2cc(NC(=O)c3cc4ccc(N5C[C@H]6CN(C)C[C@H]65)nc4s3)nc(C)c2n1 [Compound 218, N-(2,8-dimethylimidazo[1,2-a]pyrazin-6-yl)-6-((1R,5S)-3-methyl-3,6-diazabicyclo[3.2.0]heptan-6-yl)thieno[2,3-b]pyridine-2-carboxamide]	< 100 nM
CNC1CCN(c2ccc3cc(C(=O)Nc4cn5cc(C)nc5c(C)n4)sc3n2)C1 (centres unmarked) [Compound 219, N-(2,8-dimethylimidazo[1,2-a]pyrazin-6-yl)-6-(3-(methylamino)pyrrolidin-1-yl)thieno[2,3-b]pyridine-2-carboxamide]	< 100 nM
CN[C@@H]1CCN(c2ccc3cc(C(=O)Nc4cc(OC)c5nc(C)cn5c4)sc3n2)C1 [Compound 220, (R)-N-(8-methoxy-2-methylimidazo[1,2-a]pyridin-6-yl)-6-(3-(methylamino)pyrrolidin-1-yl)thieno[2,3-b]pyridine-2-carboxamide]	< 100 nM
COc1cc2nn(C)cc2cc1NC(=O)c1cc2ccc(N3CCC4(CN(C)C4)C3)nc2s1 [Compound 221, N-(6-methoxy-2-methyl-2H-indazol-5-yl)-6-(2-methyl-2,6-diazaspiro[3.4]octan-6-yl)thieno[2,3-b]pyridine-2-carboxamide]	< 100 nM
Cc1cn2cc(NC(=O)c3cc4ccc(N5CCC6(CN(C)C6)C5)nc4s3)nc(C)c2n1 [Compound 226, N-(2,8-dimethylimidazo[1,2-a]pyrazin-6-yl)-6-(2-methyl-2,6-diazaspiro[3.4]octan-6-yl)thieno[2,3-b]pyridine-2-carboxamide]	< 100 nM
Cc1cn2cc(NC(=O)c3cc4ccc(N5CCC(C)(N(C)C)C5)nc4s3)nc(C)c2n1 (centres unmarked) [Compound 227, 6-(3-(dimethylamino)-3-methylpyrrolidin-1-yl)-N-(2,8-dimethylimidazo[1,2-a]pyrazin-6-yl)thieno[2,3-b]pyridine-2-carboxamide]	< 100 nM
Cc1cn2cc(NC(=O)c3cc4ccc(N5CCC(N6CCC6)C5)nc4s3)nc(C)c2n1 (centres unmarked) [Compound 228, 6-(3-(azetidin-1-yl)pyrrolidin-1-yl)-N-(2,8-dimethylimidazo[1,2-a]pyrazin-6-yl)thieno[2,3-b]pyridine-2-carboxamide]	< 100 nM
Cc1nc(NC(=O)c2cc3ccc(N4C[C@@H]5CN(C)C[C@@H]54)nc3s2)cc2cn(C)nc12 [Compound 229, N-(2,7-dimethyl-2H-pyrazolo[3,4-c]pyridin-5-yl)-6-((1S,5R)-3-methyl-3,6-diazabicyclo[3.2.0]heptan-6-yl)thieno[2,3-b]pyridine-2-carboxamide]	< 100 nM
Cc1nc(NC(=O)c2cc3ccc(N4CCC5(CCCN5C)C4)nc3s2)cc2cn(C)nc12 (centres unmarked) [Compound 230, N-(2,7-dimethyl-2H-pyrazolo[3,4-c]pyridin-5-yl)-6-(1-methyl-1,7-diazaspiro[4.4]nonan-7-yl)thieno[2,3-b]pyridine-2-carboxamide]	< 100 nM
COc1cc2nn(C)cc2cc1NC(=O)c1cc2ccc(N3CC(N4CCC4)C3)nc2s1 [Compound 232, 6-([1,3′-biazetidin]-1′-yl)-N-(6-methoxy-2-methyl-2H-indazol-5-yl)thieno[2,3-b]pyridine-2-carboxamide]	< 100 nM
